According to ChEMBL document CHEMBL1157539, “Thousands of chemical starting points for antimalarial lead identification” (Nature, 2010):

Test system: Plasmodium falciparum
Assay: GSK_TCMDC: Inhibition of Plasmodium falciparum 3D7 in whole erythrocytes, using parasite LDH activity as an index of growth.
Type: functional, organism-based
Conditions: Plasmodium falciparum, 3D7

| SMILES | XC50 |
| --- | --- |
| Cc1cccc(Cl)c1Nc1nnc(-c2cccc(C(=O)NC[C@@H]3CC[C@H]4C[C@@H]3C4(C)C)c2)o1 | 0.273 µM |
| CC1(C)N=C(N)N=C(N)C1c1ccc(Cl)cc1 (configuration not stated) | 0.259 µM |
| COc1ccc2nccc([C@@H](O)CN3CCC(NC(=O)/C=C/c4cccc(C)c4)CC3)c2c1 | 1.25 µM |
| COc1ccc(C=C2SC(=O)N=C2Nc2ccccc2)c(OC)c1 | 0.47 µM |
| COc1ccc(CCNC(=O)c2cc(C)ccc2O)cc1-c1ccc(C(C)(C)C)cc1 | 0.482 µM |
| COc1cc(CNC[C@@H](O)[C@H](Cc2ccccc2)NC(=O)c2cc(C3CCCC3)cc(N3CCCC3=O)c2)cc(OC)c1 | 0.224 µM |
| COc1ccc2nccc([C@@H](O)CN3CCC(NC(=O)/C=C/c4ccc5ccccc5n4)CC3)c2c1 | 0.993 µM |
| NC(=O)c1ccc(NCC(=O)Nc2cccc(-c3cccc(-c4nc5cc(C(F)(F)F)ccc5[nH]4)c3)c2)cc1 | 0.27 µM |
| Cc1ccccc1C1CCN(c2ccc(C(=O)Nc3ccccc3)cn2)CC1 | 0.327 µM |
| CCOc1cc(C)ccc1C1CCN(CCCCNC(=O)c2nc(-c3ccc(C(F)(F)F)cc3)[nH]c2C)CC1 | 0.729 µM |
| Cc1c(CN2CCC(N3CCC(C(=O)NC4CC4)CC3)CC2)[nH]c2c(Cl)cccc12 | 1.19 µM |
| O=C(Nc1ccc(C(=O)OCC2CCCCC2)cc1)N[C@@H](Cc1ccc(O)cc1)C(=O)NC1CCN(Cc2ccc(O)cc2)C1 (some centres not stated) | 0.874 µM |
| O=C(NCCCNc1ccnc2cc(Cl)ccc12)c1ccccc1F | 0.315 µM |
| COc1ccc2nc3cc(Cl)ccc3c(NCc3ccccc3)c2c1 | 0.866 µM |
| O=C(C=Cc1ccc(Cl)c(Cl)c1)NCCCCCN1CCC(CCCNS(=O)(=O)c2ccc(Br)cc2)CC1 | 1.13 µM |
| c1cc(CN2CCC(CCN3CCCCC3)CC2)cc(-c2cccc(-c3nc4ccccc4[nH]3)c2)c1 | 0.14 µM |
| CCCc1cc(=O)[nH]c(-n2nc(C)cc2NC(=O)CC(c2ccccc2)c2ccccc2)n1 | 0.618 µM |
| CC(C)(C)OC(=O)NCc1ccc(Nc2nnc(-c3ccc(OCC(=O)NCc4cc(C(F)(F)F)cc(C(F)(F)F)c4)c([N+](=O)[O-])c3)o2)cc1 | 0.46 µM |
| COc1cccc(CN2Cc3ccccc3OC3(CCN(Cc4c[nH]c5cnccc45)CC3)C2)c1 | 1.3 µM |
| Cc1ccc(NC(C)C(=O)Nc2ccccc2)cc1S(=O)(=O)N1CCCCCC1 (configuration not stated) | 0.0624 µM |
| Oc1ccc(CCNc2nc(NCCCOc3cccc(-c4ccccc4)c3)nc(N3CCNCC3)n2)cc1 | 1.13 µM |
| O=C(NCc1ccc(C(=O)NC2CCCCCC2)cc1)c1ccc(O)c(-c2ccc(Cl)c(Cl)c2)c1 | 1.06 µM |
| O=C(Nc1ccc2ccccc2c1)N(CCCn1ccnc1)Cc1csc(-c2ccc(CNCc3ccccc3)cc2)n1 | 0.739 µM |
| CN(C)CCNc1cc(-c2cccnc2)nc(-c2ccncc2)n1 | 0.596 µM |

| SMILES | XC50 |
| --- | --- |
| COc1ccc(-c2cccc(NC(=O)c3ccc(C#N)cc3)c2)cc1CN1CCCC1 | 0.696 µM |
| N#Cc1ccc(NC(=O)c2ccc(Cc3ccc4c(c3)CCN(C3CCC3)CC4)cn2)cc1 | 1.12 µM |
| Nc1nc(N)c2c(ccc3c2ccn3CCCC(F)(F)F)n1 | 0.098 µM |
| COc1ccc(-c2nonc2NC(=O)c2cccc(Cl)c2)cc1OC | 0.876 µM |
| Oc1ccc2ccccc2c1C=NNc1nc(=Nc2ccccc2)[nH]c(=Nc2ccccc2)[nH]1 | 0.667 µM |
| CCCOc1ccc(C(=O)Nc2nonc2-c2ccc(OC)c(OC)c2)cc1 | 0.991 µM |
| NC1CCN(Cc2ccc(-c3cccc(-c4nc5cc(F)ccc5[nH]4)c3)cc2)C1 (configuration not stated) | 0.759 µM |
| CC(C)=CC1C(C(=O)n2c(=N)[nH]c3ccccc32)C1(C)C (configuration not stated) | 0.193 µM |
| O=C(NCc1ccc(S(=O)(=O)N2CCC(CN3CCC(c4c[nH]c5ccccc45)CC3)CC2)s1)c1ccccc1 | 0.843 µM |
| CNC(=O)C1Cc2c([nH]c3cc(Cl)ccc23)C2(CCN(CCc3ccccc3)CC2)N1 (configuration not stated) | 0.934 µM |
| Cc1cccc(CN2CCCN(Cc3cccc(C(=O)Nc4ccc(C(C)(C)C)cc4)c3)CC2)c1 | 0.934 µM |
| O=C(Nc1ccc2c(c1)CCC2)c1cccc(CN2CCCN(Cc3cccc(O)c3)CC2)c1 | 1.08 µM |
| CCn1ncc2c(N3CCCC3=O)cc(C(=O)N[C@@H](Cc3ccccc3)[C@H](O)CNC(C)(C)c3cccc(OC)c3)cc21 | 0.107 µM |
| N=C1N=C(N)NC2(CCCCC2)N1OCCOc1ccc(Cc2ccccc2)cc1 | 1.13 µM |
| COc1cc(F)c2ncc(Cl)c(CCN3CCC(NCc4ccc5c(c4)NC(=O)CS5)CC3)c2c1 | 0.313 µM |
| O=C(NCC1CCN(Cc2cccc(C(F)(F)F)c2)C1)c1cc(-c2cccc(F)c2)cs1 (configuration not stated) | 1.18 µM |
| O=C(CC1SC(N2N=C(c3cccs3)CC2c2ccccc2)=NC1=O)Nc1ccccc1F (configuration not stated) | 1.09 µM |
| COc1ccc(C(=O)C2CCN(CCCCNC(=O)c3ccc(NC(=O)c4cc(Cl)cc(Cl)c4)cc3)CC2)cc1 | 0.173 µM |
| CC(C)Nc1nc(NCCc2c[nH]cn2)nc(NCc2cccc3ccccc23)n1 | 1.01 µM |
| CC(=O)c1ccc(S(=O)(=O)N2CCC(C(=O)Nc3ccccc3N3CCCC3)CC2)cc1 | 0.833 µM |
| COc1ccc(Nc2nccc(NCCNC(=O)Nc3cc(C)ccc3C)n2)cc1 | 1.05 µM |
| COc1cc2nc(N3CCC(CCCC4CCNCC4)CC3)nc(NCc3ccccn3)c2cc1OC | 0.757 µM |
| Cc1cc(F)ccc1Nc1nc(N(C)c2ccccc2)c2cccc(OCCO)c2n1 | 0.795 µM |
